Source: article PMC4147344, “Discovery of novel non-ATP competitive FGFR1 inhibitors and evaluation of their anti-tumor activity in non-small cell lung cancer in vitro and in vivo” (Oncotarget, 2014)
“And” between values parts separate entries of the source, which are not always exact repeats. Equal values may be shown once. Read-outs that look alike come from different tables or passages of the source.

Legend:
H460 cells [1] = test: Caspase activation (cleaved caspase-3 and -9), western blot; assay type: cell-based, human; details: 10 μM, 12 h
Experimental: (§1) Figure 3 […]25 inhibited proliferation and induced apoptosis in H460 cells (A) H460 cells were pretreated with compounds at indicated concentrations, followed by the treatment with bFGF (30 ng/mL) for 10 min. The phosphorylation level of FGFR1 in cell lysates was measured by western blot analysis. The column figures show the normalized optical density as a percentage of total FGFR1 control. (B) H460 cells were treated with compounds at concentrations (0.74, 2.22, 6.67, 20, and 60 μM) for 72 h. The MTT assay gives the respective IC50 values of compounds. (C) The time-course cell survival profile of H460 cells treated by compounds at 20 μM was detected through an MTT assay. (D) Effects of […]25 on caspase activation in H460 cells. […] The levels of cleaved caspase-3 and cleaved caspase-9 were determined by western blot analysis.

H460 cells [2] = test: Apoptosis analysis, Annexin V/PI flow cytometry; assay type: cell-based, human; details: 2.5, 5, 10 μM
H460 cells [3] = test: bFGF-induced phosphorylation of FGFR1, western blot; assay type: cell-based, human; details: bFGF 30 ng/mL for 10 min, pretreatment with compound
Experimental: as §1

[4] = Body weight of mice in H460 xenograft study; assay type: in vivo, BALB/cA nude mice; details: for Change of body weight during treatment: 3 mg/kg/d i.p. for 28 days; for Body weight: 3 mg/kg/d i.p., in g (unit assumed)
Experimental: (§2) Figure 4 Anti-tumor effects of compounds […] H460 xenograft models Xenografts were established in nude mice. […] (A) Tumor volume (mm^3) and (B) Tumor weight (g) were recorded (* P <0.05, ** P < 0.01). (C) Body weight of each mice was recorded. (D) pFGFR1 expressions in tumor tissues were detected by Western Blot with FGFR1 as internal control. (E) The levels of p-ERK, p-AKT, Bcl-2, CyclinD1, and COX-2 in tumor tissues were detected by immunohistochemical staining. Representative pictures are shown.

H460 cells [5] = test: MTT anti-proliferation assay; assay type: cell-based, human; details: for Time-course cell survival (MTT): 20 μM, 0-72 h; for IC50: Homo sapiens, NCI-H460, 72 h, read-out: IC50 against H460 cells (MTT)
Experimental: as §1

[6] = test system: H460 xenograft tumor tissue; test: Protein levels in xenograft tumor tissue (western blot, immunohistochemistry); assay type: in vivo, BALB/cA nude mice; details: 3 mg/kg/d i.p.; for Phosphorylated FGFR1 in tumor tissue (western blot): compared to untreated group; for Expression of Bcl-2, Cyclin D1 and cox-2 in tumor tissue (immunohistochemistry): compared with model group
Experimental: as §2

[7] = test system: FGFR1-overexpressing HEK293 cells; test: bFGF-induced phosphorylation of FGFR1 and ERK, western blot; assay type: cell-based; details: bFGF 30 ng/mL for 10 min, pretreatment with compound
Experimental: (C and D) FGFR1 over-expressing 293 cells were pretreated with compounds at indicated concentrations or vehicle (0.1% DMSO), respectively. Then, cells were stimulated with bFGF (30 ng/mL) for 10 min, and the phosphorylation level of FGFR1 and ERK in cell lysates was measured by western blot analysis. The figures were representative of 3 separate experiments (C). […] Statistical significance relative to bFGF alone group was expressed, * P <0.05, ** P < 0.01.
Cells or homogenated tumor tissues were lysated. The protein concentrations in all samples were determined by using the Bradford protein assay kit (Bio-Rad, Hercules, CA). The supernatant was run on 10% SDS-PAGE gel followed by being transferred to a PVDF membrane. After being blocked with 5% non-fat dry milk in TBST for 1.5h, the membrane was incubated with the primary antibody overnight followed by incubation with goat anti-rabbit IgG, HRP-linked antibody for 1 h. The blots were detected with an ECL detection kit (Bio-Rad, Hercules, CA) according to the manufacturer's procedure. The results were analyzed by Quantity One software to determine the relative band density ratio.

H460 xenograft = test: In vivo anti-tumor study, H460 xenograft; set-up: species or system BALB/cA nude mice; details: for Tumor weight inhibition rate: 3 mg/kg/d i.p. once daily for 28 days; for Tumor volume: 3 mg/kg/d i.p., 28th day, compared to model group
Experimental: as §2

VEGFR2 = molecular target: T1, VEGFR2 (Homo sapiens, UniProt P35968); test: Cell-free kinase activity assay (Caliper Mobility Shift Assay); assay type: biochemical; details: ATP at Km; mean of 3-5 independent tests
T1 construct: purchased Carna Biosciences Inc. (Kobe, Japan)
Experimental: (§3) Compounds were performed with caliper mobility shift assay for RTK inhibition, and the IC50 values were calculated using conversion rates. The data were shown as a mean of 3-5 independent tests.
(§4) The activity of tyrosine kinase including FGFR1, FGFR2, FGFR3, EGFR, VEGFR-2, c-MET, and PDGFR-β were tested by Caliper Mobility Shift Assay on Caliper EZ reader (Caliper Life Sciences, MA) according to the instructions provided. […] For each kinase assay, the ATP concentration used in the assay was set at the Km value of the corresponding kinase. […] In the electrophoretic mobility shift assays, product accumulation was expressed as percentage conversion, product peak height/(product peak height + substrate peak height).

EGFR = molecular target: T2, EGFR (Homo sapiens, UniProt P00533); test: as above; assay type: biochemical; details: ATP at Km; mean of 3-5 independent tests
T2 construct: purchased Carna Biosciences Inc. (Kobe, Japan)
Experimental: as §3, §4

FGFR1 [8] = molecular target: T3, FGFR1 (Homo sapiens, UniProt P11362); test: ATP competitive inhibition assay (caliper mobility shift assay); assay type: biochemical; details: ATP 33-4192 μM, substrate constant
T3 construct: purchased Carna Biosciences Inc. (Kobe, Japan)
Experimental: In the experiments for testing the relationship between the compounds and ATP, the concentration of the substrate was constant, while the concentrations of ATP were set at 4192, 2096, 1048, 524, 262, 131, 66, and33 μM. The global competitive inhibition fit for the compounds was performed based on percent conversion = (Vmax*X)/{km*[([1] + I/Ki)^n] + X}, where X is the ATP concentration, and n is the Hill coefficient.

FGFR3 = molecular target: T4, FGFR3 (Homo sapiens, UniProt P22607); test: Cell-free kinase activity assay (Caliper Mobility Shift Assay); assay type: biochemical
T4 construct: purchased Carna Biosciences Inc. (Kobe, Japan)
Experimental: as §3, §4

FGFR2 = molecular target: T5, FGFR2 (Homo sapiens, UniProt P21802); test: as above; assay type: biochemical
T5 construct: purchased Carna Biosciences Inc. (Kobe, Japan)
Experimental: as §3, §4

PDGFRβ = molecular target: T6, PDGFRβ (Homo sapiens, UniProt P09619); test: as above; assay type: biochemical; details: ATP at Km; mean of 3-5 independent tests
T6 construct: purchased Carna Biosciences Inc. (Kobe, Japan)
Experimental: as §3, §4

FGFR1 [9] = molecular target: T3, FGFR1; test: as above; assay type: biochemical; details: ATP at Km; mean of 3-5 independent tests
Experimental: as §3, §4

c-MET = c-MET (Homo sapiens, UniProt P08581); test: as above; assay type: biochemical; details: ATP at Km; mean of 3-5 independent tests
Experimental: as §3, §4

T3 sequence (P11362 22-822): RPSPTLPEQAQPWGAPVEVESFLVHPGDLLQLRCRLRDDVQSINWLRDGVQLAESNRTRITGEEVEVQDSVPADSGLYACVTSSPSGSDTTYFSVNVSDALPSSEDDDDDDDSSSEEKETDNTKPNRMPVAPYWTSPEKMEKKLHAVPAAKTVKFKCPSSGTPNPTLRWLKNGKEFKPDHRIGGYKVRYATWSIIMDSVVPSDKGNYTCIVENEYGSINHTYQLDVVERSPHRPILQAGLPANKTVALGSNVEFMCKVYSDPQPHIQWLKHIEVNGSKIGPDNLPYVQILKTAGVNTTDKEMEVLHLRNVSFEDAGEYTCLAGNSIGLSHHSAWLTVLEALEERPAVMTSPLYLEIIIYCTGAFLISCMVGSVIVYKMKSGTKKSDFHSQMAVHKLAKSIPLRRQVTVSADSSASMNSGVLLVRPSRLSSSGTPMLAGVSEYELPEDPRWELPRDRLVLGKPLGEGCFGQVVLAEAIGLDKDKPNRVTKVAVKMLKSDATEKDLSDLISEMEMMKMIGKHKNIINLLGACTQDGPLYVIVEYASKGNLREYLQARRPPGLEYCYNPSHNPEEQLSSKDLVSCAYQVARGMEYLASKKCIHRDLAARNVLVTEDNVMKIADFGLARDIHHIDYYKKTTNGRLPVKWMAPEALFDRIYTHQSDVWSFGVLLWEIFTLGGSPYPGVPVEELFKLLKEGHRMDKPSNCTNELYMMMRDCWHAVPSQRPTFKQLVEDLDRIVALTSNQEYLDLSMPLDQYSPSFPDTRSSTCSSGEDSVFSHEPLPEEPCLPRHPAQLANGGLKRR
T2 sequence (P00533 25-1210): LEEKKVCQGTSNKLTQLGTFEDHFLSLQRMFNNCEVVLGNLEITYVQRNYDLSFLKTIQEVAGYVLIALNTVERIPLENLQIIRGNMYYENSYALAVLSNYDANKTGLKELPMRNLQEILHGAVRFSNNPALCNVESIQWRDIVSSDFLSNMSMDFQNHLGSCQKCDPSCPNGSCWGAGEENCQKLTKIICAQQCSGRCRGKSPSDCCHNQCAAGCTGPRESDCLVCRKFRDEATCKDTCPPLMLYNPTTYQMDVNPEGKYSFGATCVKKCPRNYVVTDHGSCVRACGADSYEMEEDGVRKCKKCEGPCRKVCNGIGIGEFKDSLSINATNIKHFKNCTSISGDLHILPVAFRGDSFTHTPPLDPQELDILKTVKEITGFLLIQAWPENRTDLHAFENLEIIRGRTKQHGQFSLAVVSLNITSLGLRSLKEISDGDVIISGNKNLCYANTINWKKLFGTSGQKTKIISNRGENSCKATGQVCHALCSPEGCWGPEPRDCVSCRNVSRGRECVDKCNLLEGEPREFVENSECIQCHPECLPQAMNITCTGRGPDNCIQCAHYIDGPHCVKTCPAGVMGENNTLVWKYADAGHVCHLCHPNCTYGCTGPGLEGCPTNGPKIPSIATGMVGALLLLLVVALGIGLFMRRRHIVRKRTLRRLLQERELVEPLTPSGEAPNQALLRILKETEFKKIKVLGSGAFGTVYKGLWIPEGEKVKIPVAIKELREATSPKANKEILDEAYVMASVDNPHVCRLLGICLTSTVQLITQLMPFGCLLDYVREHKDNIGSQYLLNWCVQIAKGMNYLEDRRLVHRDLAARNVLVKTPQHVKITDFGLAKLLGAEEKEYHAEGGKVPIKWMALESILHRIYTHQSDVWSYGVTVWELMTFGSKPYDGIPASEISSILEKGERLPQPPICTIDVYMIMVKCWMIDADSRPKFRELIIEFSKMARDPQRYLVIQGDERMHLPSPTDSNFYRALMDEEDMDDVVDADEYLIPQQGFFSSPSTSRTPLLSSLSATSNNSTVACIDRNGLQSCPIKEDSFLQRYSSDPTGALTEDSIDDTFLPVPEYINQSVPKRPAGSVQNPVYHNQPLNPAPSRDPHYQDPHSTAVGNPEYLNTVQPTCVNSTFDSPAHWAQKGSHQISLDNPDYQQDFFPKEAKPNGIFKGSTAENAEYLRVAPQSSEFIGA
T5 sequence (P21802 22-821): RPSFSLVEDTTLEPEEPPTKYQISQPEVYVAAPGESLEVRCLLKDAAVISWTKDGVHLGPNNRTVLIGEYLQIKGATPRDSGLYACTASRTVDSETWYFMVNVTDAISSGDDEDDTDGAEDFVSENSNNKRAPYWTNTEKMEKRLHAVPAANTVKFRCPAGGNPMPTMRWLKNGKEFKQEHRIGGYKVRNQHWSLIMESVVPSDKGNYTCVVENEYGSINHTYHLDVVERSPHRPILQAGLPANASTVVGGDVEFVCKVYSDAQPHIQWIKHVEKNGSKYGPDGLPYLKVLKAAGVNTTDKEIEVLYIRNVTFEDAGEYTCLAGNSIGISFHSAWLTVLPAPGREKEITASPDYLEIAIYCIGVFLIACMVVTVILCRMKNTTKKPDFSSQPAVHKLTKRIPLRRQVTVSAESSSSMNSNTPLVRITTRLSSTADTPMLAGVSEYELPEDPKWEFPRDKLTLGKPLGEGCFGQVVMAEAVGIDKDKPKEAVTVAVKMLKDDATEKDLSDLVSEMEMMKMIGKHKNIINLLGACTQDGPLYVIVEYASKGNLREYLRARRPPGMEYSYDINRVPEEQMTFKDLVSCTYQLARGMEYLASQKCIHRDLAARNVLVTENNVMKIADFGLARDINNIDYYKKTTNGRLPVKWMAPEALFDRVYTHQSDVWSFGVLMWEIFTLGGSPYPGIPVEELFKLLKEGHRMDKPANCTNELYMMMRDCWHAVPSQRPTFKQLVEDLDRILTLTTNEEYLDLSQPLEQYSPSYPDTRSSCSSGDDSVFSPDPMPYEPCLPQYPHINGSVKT
T6 sequence (P09619 33-1106): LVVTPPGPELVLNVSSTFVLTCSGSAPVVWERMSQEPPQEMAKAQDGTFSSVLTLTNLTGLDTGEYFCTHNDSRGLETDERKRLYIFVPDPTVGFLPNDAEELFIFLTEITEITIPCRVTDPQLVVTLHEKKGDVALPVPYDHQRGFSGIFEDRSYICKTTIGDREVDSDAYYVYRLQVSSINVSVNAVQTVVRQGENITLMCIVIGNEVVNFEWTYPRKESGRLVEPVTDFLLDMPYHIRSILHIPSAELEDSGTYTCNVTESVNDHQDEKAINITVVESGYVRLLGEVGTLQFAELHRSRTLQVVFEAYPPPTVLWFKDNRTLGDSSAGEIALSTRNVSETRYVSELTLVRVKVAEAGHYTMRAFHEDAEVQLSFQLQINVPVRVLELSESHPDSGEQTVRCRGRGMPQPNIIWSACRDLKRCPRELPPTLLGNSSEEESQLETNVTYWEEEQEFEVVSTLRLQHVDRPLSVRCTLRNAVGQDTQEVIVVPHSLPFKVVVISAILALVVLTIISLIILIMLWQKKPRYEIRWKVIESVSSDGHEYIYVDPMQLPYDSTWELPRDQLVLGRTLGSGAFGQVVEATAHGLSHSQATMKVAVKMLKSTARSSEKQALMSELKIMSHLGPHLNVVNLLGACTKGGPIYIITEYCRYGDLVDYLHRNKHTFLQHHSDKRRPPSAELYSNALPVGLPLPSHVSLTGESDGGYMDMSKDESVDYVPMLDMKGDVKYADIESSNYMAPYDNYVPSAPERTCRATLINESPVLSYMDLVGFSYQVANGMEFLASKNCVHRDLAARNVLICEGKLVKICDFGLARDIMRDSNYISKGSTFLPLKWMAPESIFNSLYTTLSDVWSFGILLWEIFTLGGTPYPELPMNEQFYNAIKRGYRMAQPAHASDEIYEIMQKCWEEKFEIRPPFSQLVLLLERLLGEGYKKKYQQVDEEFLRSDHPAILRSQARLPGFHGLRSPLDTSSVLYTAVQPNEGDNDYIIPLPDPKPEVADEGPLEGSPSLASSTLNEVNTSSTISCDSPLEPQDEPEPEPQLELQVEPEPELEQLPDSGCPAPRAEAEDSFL
T4 sequence (P22607 23-806): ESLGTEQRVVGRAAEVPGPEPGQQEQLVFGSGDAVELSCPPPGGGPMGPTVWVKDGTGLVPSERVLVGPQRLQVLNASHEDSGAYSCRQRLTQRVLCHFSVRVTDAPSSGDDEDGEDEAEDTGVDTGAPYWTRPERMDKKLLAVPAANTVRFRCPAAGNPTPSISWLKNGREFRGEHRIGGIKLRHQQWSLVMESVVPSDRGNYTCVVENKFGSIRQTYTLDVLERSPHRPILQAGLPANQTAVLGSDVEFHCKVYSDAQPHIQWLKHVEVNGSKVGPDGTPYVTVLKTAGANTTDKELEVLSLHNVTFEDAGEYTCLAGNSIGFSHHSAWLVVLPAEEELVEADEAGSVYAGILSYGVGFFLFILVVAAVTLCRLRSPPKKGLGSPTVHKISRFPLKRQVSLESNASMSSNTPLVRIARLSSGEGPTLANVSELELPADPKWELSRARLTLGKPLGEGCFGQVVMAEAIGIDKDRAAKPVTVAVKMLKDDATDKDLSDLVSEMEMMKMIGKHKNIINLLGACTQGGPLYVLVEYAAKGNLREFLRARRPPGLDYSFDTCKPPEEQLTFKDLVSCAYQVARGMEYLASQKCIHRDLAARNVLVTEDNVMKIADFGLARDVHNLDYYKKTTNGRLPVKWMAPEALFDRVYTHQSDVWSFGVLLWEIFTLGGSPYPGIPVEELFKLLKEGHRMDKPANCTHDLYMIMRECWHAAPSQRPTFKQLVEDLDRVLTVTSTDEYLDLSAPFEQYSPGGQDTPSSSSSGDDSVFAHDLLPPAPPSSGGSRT

Row | IC50 (H460 cells [5]) [µM] | IC50 (VEGFR2) [µM] | IC50 (EGFR) [µM] | IC50 (PDGFRβ) [µM] | IC50 (FGFR1 [9]) | SMILES | Expression of cleaved caspase 3 and 9 (H460 cells [1]) | Apoptotic cell rate (H460 cells [2]) | Phosphorylation of FGFR1 (H460 cells [3]) | Change of body weight during treatment [4] | Body weight ([4]; Week 1st) | Body weight ([4]; Week 2nd) | Body weight ([4]; Week 3rd) | Body weight ([4]; Week 4th) | Time-course cell survival (MTT) (H460 cells [5]) | Phosphorylated FGFR1 in tumor tissue (western blot) [6] | Expression of Bcl-2, Cyclin D1 and cox-2 in tumor tissue (immunohistochemistry) [6] | Phosphorylation of FGFR1 and ERK [7] | Tumor weight inhibition rate (H460 xenograft) [%] | Tumor volume (H460 xenograft) | Effect of increased ATP concentration on FGFR1 inhibition (mode of inhibition) (FGFR1 [8]) | further results
1 | 5 | – | – | – | – | O=C1/C(=C/c2ccccc2Cl)CNC/C1=C\c1ccccc1Cl [Aea4] | significantly increased | induced H460 cell apoptosis in a dose-dependent manner | inhibited this effect in a dose-dependent fashion | no obvious change | 23.37 ± 0.73 | 24.94 ± 0.83 | 25.81 ± 0.85 | 24.94 ± 0.79 | inhibit cell proliferation and increase cell death of H460 time-dependently | decreased expression of phosphorylated FGFR1 | effectively restrained the expression of Bcl-2, Cyclin D1 and cox-2 | inhibited their phosphorylation of FGFR1 and ERK in a dose-dependent manner | 55.0 | significant reduction in tumor volume at the 28th day | – | –
2 | 5.8 | 28.6 | 33.3 | 84 | 8.8 µM and 6.5 µM | O=C1/C(=C/c2ccccc2Br)CNC/C1=C\c1ccccc1Br [Aea25] | significantly increased | induced H460 cell apoptosis in a dose-dependent manner | inhibited this effect in a dose-dependent fashion | no obvious change | 22.01 ± 0.75 | 24.02 ± 0.53 | 25.26 ± 0.38 | 25.36 ± 0.51 | inhibit cell proliferation and increase cell death of H460 time-dependently | decreased expression of phosphorylated FGFR1 | effectively restrained the expression of Bcl-2, Cyclin D1 and cox-2 | inhibited their phosphorylation of FGFR1 and ERK in a dose-dependent manner | 66.5 | significant reduction in tumor volume at the 28th day | ATP independent manner | IC50 (FGFR3): 43.2 µM; IC50 (FGFR2): 43.3 µM; IC50 (c-MET): 8.2 µM
3 | 15.6 ± 1.2 | > 100 | 89.9 | > 100 | 24.5 µM | C[C@H](Cc1ccc(O)c(O)c1)[C@@H](C)Cc1ccc(O)c(O)c1 [NDGA, Nordihydroguaiaretic acid, reference compound] | – | – | – | – | – | – | – | – | – | – | – | – | – | – | did not affect the rate of FGFR1 substrate phosphorylation | IC50 (FGFR3; ATP at Km, mean of 3-5 independent tests, read-out: IC50 FGFR3): 72.4 µM; IC50 (FGFR2; ATP at Km, mean of 3-5 independent tests, read-out: IC50 FGFR2): > 100 µM; IC50 (c-MET): > 100 µM
